Consider six compounds from paper PMC8037723, “Functional Characterization of an Anthocyanin Dimalonyltransferase in Maize” (Molecules, 2021).

The subject of the test is T1, Aat1.
T1 construct: full length, 6x-His-tag in pET-30a(+) (EcoRI/HindIII), E. coli Rosetta-gami 2(DE3)pLysS, Ni-NTA purified
Description: UHPLC product quantification at […] nm, Michaelis-Menten fit. The conditions noted are these: 100 mM potassium phosphate pH 8.0, 30 °C. The class given is biochemical, Zea mays.

Where [1] appears, read: acyl donor, 120 µM cyanidin 3-O-glucoside, donor 5-30 µM.
Setting [2] is: 60 µM malonyl-CoA, substrate 5-120 µM.

The Km is the concentration of substrate that gives half-maximal velocity. Regarding `CC(C)(COP(=O)(O)OP(=O)(O)OC[C@H]1O[C@@H](n2cnc3c(N)ncnc32)[C@H](O)[C@@H]1OP(=O)(O)O)[C@@H](O)C(=O)NCCC(=O)NCCSC(=O)CCC(=O)O` [Succinyl-CoA], the Km under setting [1] was 60.09 ± 0.02 µM.

In the case of `OC[C@H]1O[C@@H](Oc2cc3c(O)cc(O)cc3[o+]c2-c2ccc(O)cc2)[C@H](O)[C@@H](O)[C@@H]1O` [Pelargonidin 3-O-Glucoside], the Michaelis-Menten constant (Km) under setting [2] was determined as 8.92 ± 0.41 µM.

In the case of `COc1cc(-c2[o+]c3cc(O)cc(O)c3cc2O[C@@H]2O[C@H](CO)[C@@H](O)[C@H](O)[C@H]2O)ccc1O` [Peonidin 3-O-Glucoside], the Km under setting [2] turned out to be 5.14 ± 0.93 µM.

Take `OC[C@H]1O[C@@H](Oc2cc3c(O)cc(O)cc3[o+]c2-c2ccc(O)c(O)c2)[C@H](O)[C@@H](O)[C@@H]1O` [compound 1, Cyanidin 3-O-Glucoside]: the Km under setting [2] came out at 13.1 ± 0.23 µM.

`CC(C)(COP(=O)(O)OP(=O)(O)OC[C@H]1O[C@@H](n2cnc3c(N)ncnc32)[C@H](O)[C@@H]1OP(=O)(O)O)[C@@H](O)C(=O)NCCC(=O)NCCSC(=O)CC(=O)O` [Malonyl-CoA]: under setting [1], the Michaelis-Menten constant (Km) turned out to be 40.12 ± 0.04 µM.

For the compound `O=C(O)CC(=O)OC[C@H]1O[C@@H](Oc2cc3c(O)cc(O)cc3[o+]c2-c2ccc(O)c(O)c2)[C@H](O)[C@@H](O)[C@@H]1O` [compound 2, Cyanidin 3-O-6”-Malonylglucoside], the Km (60 µM malonyl-CoA, substrate 2.5-30 µM, semi-preparative fraction of 91.95% purity) came out at 1.33 ± 3.97 µM.
